Test results: ChEMBL document CHEMBL1201862, “PubChem BioAssay data set” (2004)
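Grown in 96-well plates, cells were treated for 48 hours with each compound at five concentrations. Insufficient inhibition: endpoint recorded as highest concentration tested. Abbreviation: GI50, concentration required for 50% inhibition of growth.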 Active and inactive are the calls of the source. No stated cut-off is given here; in the data, active = GI50 up to about 1.1 µM and inactive = higher.

Legend:
Experiment in all cases: growth of human tumour cells (NCI), 48 h
CCRF-CEM = test system: CCRF-CEM
UACC-62 = test system: UACC-62
OVCAR-5 = test system: OVCAR-5
HCT-116 = test system: HCT-116
SF-539 = test system: SF-539
786-0 = test system: 786-0
DMS-273 = test system: DMS-273
KM12 = test system: KM12
OVCAR-4 = test system: OVCAR-4
A498 = test system: A498
HOP-62 = test system: HOP-62
HT-29 = test system: HT-29
M19-MEL = test system: M19-MEL
MOLT-4 = test system: MOLT-4
UO-31 = test system: UO-31
DLD-1 = test system: DLD-1
TK-10 = test system: TK-10
SNB-78 = test system: SNB-78
KM-20L2 = test system: KM-20L2
SK-MEL-2 = test system: SK-MEL-2
HCC 2998 = test system: HCC 2998
U-251 = test system: U-251
IGROV-1 = test system: IGROV-1
NCI-H522 = test system: NCI-H522
SF-295 = test system: SF-295
NCI-H460 = test system: NCI-H460
HOP-92 = test system: HOP-92
SN12C = test system: SN12C
A549 = test system: A549
RXF 631 = test system: RXF 631
EKVX = test system: EKVX
DMS-114 = test system: DMS-114
SK-MEL-28 = test system: SK-MEL-28
UACC-257 = test system: UACC-257
COLO 205 = test system: COLO 205
SNB-19 = test system: SNB-19
SK-OV-3 = test system: SK-OV-3
RXF 393 = test system: RXF 393
ACHN = test system: ACHN
SW-620 = test system: SW-620
OVCAR-3 = test system: OVCAR-3
SF-268 = test system: SF-268
K562 = test system: K562
SK-MEL-5 = test system: SK-MEL-5
OVCAR-8 = test system: OVCAR-8
HCT-15 = test system: HCT-15
HL-60 = test system: HL-60
SNB-75 = test system: SNB-75
HOP-18 = test system: HOP-18
NCI-H23 = test system: NCI-H23
CAKI-1 = test system: CAKI-1
RPMI-8226 = test system: RPMI-8226
LOX IMVI = test system: LOX IMVI
M14 = test system: M14
NCI-H226 = test system: NCI-H226
SR = test system: SR
Malme-3M = test system: Malme-3M

For `O=S(=O)(Cc1ccccc1)SCc1ccccc1`, which GI50 (CCRF-CEM) is on record?
The GI50 was 3.24 µM (inactive).

What about the GI50 (UACC-62) of the same compound?
The GI50 was 23.3 µM (inactive).

What about the GI50 (OVCAR-5) of the same compound?
Its GI50 is > 74 µM (inactive).

And the GI50 (HCT-116)?
Its GI50 is 10.1 µM (inactive).

And the GI50 (SF-539)?
The GI50 was 18.3 µM (inactive).

And the GI50 (786-0)?
The GI50 was 22.7 µM (inactive).

What about the GI50 (DMS-273) of the same compound?
Its GI50 is 29.9 µM (inactive).

What about the GI50 (KM12) of the same compound?
Its GI50 is 32.4 µM (inactive).

And the GI50 (OVCAR-4)?
The GI50 was 21.2 µM (inactive).

And the GI50 (A498)?
The GI50 was 25.3 µM (inactive).

What about the GI50 (HOP-62) of the same compound?
The GI50 was 44.6 µM (inactive).

And the GI50 (HT-29)?
The GI50 was 25.4 µM (inactive).

What about the GI50 (M19-MEL) of the same compound?
The GI50 was 22.2 µM (inactive).

What about the GI50 (MOLT-4) of the same compound?
The GI50 was 3.09 µM (inactive).

What about the GI50 (UO-31) of the same compound?
The GI50 was 61.4 µM (inactive).

What about the GI50 (DLD-1) of the same compound?
Its GI50 is 7.71 µM (inactive).

And the GI50 (TK-10)?
Its GI50 is > 48.1 µM (inactive).

And the GI50 (SNB-78)?
Its GI50 is 19.3 µM (inactive).

What about the GI50 (KM-20L2) of the same compound?
The GI50 was 21.6 µM (inactive).

And the GI50 (SK-MEL-2)?
The GI50 was 30.4 µM (inactive).

What about the GI50 (HCC 2998) of the same compound?
Its GI50 is 17.8 µM (inactive).

What about the GI50 (U-251) of the same compound?
The GI50 was 26 µM (inactive).

And the GI50 (IGROV-1)?
Its GI50 is 31.6 µM (inactive).

What about the GI50 (NCI-H522) of the same compound?
Its GI50 is 10.7 µM (inactive).

And the GI50 (SF-295)?
The GI50 was 24.7 µM (inactive).

And the GI50 (NCI-H460)?
The GI50 was 27.6 µM (inactive).

What about the GI50 (HOP-92) of the same compound?
The GI50 was 18.5 µM (inactive).

What about the GI50 (SN12C) of the same compound?
The GI50 was 24.7 µM (inactive).

What about the GI50 (A549) of the same compound?
Its GI50 is 30.8 µM (inactive).

And the GI50 (RXF 631)?
The GI50 was 19.1 µM (inactive).

What about the GI50 (EKVX) of the same compound?
The GI50 was 30.2 µM (inactive).

And the GI50 (DMS-114)?
The GI50 was 17.5 µM (inactive).

What about the GI50 (SK-MEL-28) of the same compound?
Its GI50 is 34.1 µM (inactive).

And the GI50 (UACC-257)?
The GI50 was 24.3 µM (inactive).

And the GI50 (COLO 205)?
Its GI50 is 19.5 µM (inactive).

And the GI50 (SNB-19)?
Its GI50 is 33.6 µM (inactive).

And the GI50 (SK-OV-3)?
The GI50 was 48.5 µM (inactive).

What about the GI50 (RXF 393) of the same compound?
The GI50 was 25.8 µM (inactive).

And the GI50 (ACHN)?
Its GI50 is 39.6 µM (inactive).

What about the GI50 (SW-620) of the same compound?
The GI50 was 4.37 µM (inactive).

What about the GI50 (OVCAR-3) of the same compound?
The GI50 was 23.4 µM (inactive).

What about the GI50 (SF-268) of the same compound?
Its GI50 is 36.8 µM (inactive).

And the GI50 (K562)?
The GI50 was 4.91 µM (inactive).

And the GI50 (SK-MEL-5)?
Its GI50 is 21.4 µM (inactive).

And the GI50 (OVCAR-8)?
The GI50 was 15.2 µM (inactive).

And the GI50 (HCT-15)?
The GI50 was 18.4 µM.

And the GI50 (HL-60)?
Its GI50 is 5.07 µM (inactive).

And the GI50 (SNB-75)?
Its GI50 is 33.9 µM (inactive).

And the GI50 (HOP-18)?
Its GI50 is 18.9 µM (inactive).

And the GI50 (NCI-H23)?
Its GI50 is 23.1 µM (inactive).

What about the GI50 (CAKI-1) of the same compound?
The GI50 was > 50.9 µM (inactive).

And the GI50 (RPMI-8226)?
The GI50 was 13.3 µM (inactive).

What about the GI50 (LOX IMVI) of the same compound?
Its GI50 is 16.6 µM (inactive).

What about the GI50 (M14) of the same compound?
Its GI50 is 14.3 µM (inactive).

What about the GI50 (NCI-H226) of the same compound?
Its GI50 is 24.5 µM (inactive).

What about the GI50 (SR) of the same compound?
The GI50 was 10.9 µM (inactive).

What about the GI50 (Malme-3M) of the same compound?
Its GI50 is 27.3 µM (inactive).
